This is an account of results in ChEMBL document CHEMBL5247653, “Discovery of Clinical Candidate ACT-777991, a Potent CXCR3 Antagonist for Antigen-Driven and Inflammatory Pathologies” (J Med Chem, 2023).

The target of series [1] is Voltage-gated inwardly rectifying potassium channel KCNH2 (Homo sapiens, UniProt Q12809). The series can be described thus: Inhibition of human ERG stably expressed in CHO cells at -80 mV holding voltage by automated QPatch electrophysiological assay. Type of series: toxicity, cell-based.
Series [2] deals with T1, C-X-C chemokine receptor type 3 (Homo sapiens, UniProt P49682).
T1 sequence (P49682 whole entry): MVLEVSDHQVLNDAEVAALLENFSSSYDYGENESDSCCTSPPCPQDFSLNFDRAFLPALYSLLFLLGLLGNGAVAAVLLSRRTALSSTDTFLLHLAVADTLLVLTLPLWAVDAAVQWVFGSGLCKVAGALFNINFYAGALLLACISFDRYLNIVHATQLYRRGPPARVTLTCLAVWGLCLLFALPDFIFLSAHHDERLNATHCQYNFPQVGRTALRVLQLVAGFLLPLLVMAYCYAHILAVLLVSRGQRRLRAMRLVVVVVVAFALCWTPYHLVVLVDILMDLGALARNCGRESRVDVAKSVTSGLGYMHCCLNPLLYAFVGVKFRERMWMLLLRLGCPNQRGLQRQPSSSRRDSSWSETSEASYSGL
The series can be described thus: Antagonist activity at CXCR3 (unknown origin) in human T cells in venous blood assessed as receptor internalization incubated for 30 mins in presence of CXCL10 by flow cytometric analysis. Type of series: cell-based, T cell. A general note: Flow cytometry measures light scatter and fluorescence of single cells or particles in a stream.

Series [3] can be described thus: Lipophilicity, log D of compound. Type of series: physicochemical. To be noted: octanol/water.
A short description of series [4]: Oral bioavailability in Beagle dog at 2 mg/kg. It is filed as ADME, organism-based, Canis lupus familiaris. Particulars: in vivo.
A short description of series [5]: Clearance in Wistar rat at 2 mg/kg,po. It is filed as ADME, organism-based. Particulars: in vivo.
Series [6] in a line: Oral bioavailability in Wistar rat at 2 mg/kg. It is filed as ADME, organism-based. Particulars: in vivo.
The nature of series [7]: Metabolic stability in human liver microsomes assessed as intrinsic clearance at 1 uM and measured upto 15 mins in presence of NADPH regenerating system by LC-MS/MS analysis. Type of series: ADME, Microsome. To be noted: read-out: CLH. (Liver microsomes are a subcellular fraction often used to study metabolism.)
For another series, the target named is CYP3A4 (Homo sapiens, UniProt P08684). The series can be described thus: […] recombinant human CYP3A4 mediated drug metabolism in human liver microsomes assessed as intrinsic clearance at 1 uM incubated for 45 mins in presence of NADPH regenerating system by LC-MS/MS analysis. Type of series: ADME, Microsome. Particulars: read-out: CLH.
The next series has as its target CYP2D6 (Homo sapiens, UniProt P10635). The series can be described thus: […] recombinant human CYP2D6 mediated drug metabolism in human liver microsomes assessed as intrinsic clearance at 1 uM incubated for 45 mins in presence of NADPH regenerating system by LC-MS/MS analysis. Particulars: recombinant human CYP2D6, read-out: CLH. Type of series: ADME, Microsome.

SMILES strings stand for the structures. pIC50: −log10 of the molar value.

Chain of CYP2D6 (P10635 whole entry): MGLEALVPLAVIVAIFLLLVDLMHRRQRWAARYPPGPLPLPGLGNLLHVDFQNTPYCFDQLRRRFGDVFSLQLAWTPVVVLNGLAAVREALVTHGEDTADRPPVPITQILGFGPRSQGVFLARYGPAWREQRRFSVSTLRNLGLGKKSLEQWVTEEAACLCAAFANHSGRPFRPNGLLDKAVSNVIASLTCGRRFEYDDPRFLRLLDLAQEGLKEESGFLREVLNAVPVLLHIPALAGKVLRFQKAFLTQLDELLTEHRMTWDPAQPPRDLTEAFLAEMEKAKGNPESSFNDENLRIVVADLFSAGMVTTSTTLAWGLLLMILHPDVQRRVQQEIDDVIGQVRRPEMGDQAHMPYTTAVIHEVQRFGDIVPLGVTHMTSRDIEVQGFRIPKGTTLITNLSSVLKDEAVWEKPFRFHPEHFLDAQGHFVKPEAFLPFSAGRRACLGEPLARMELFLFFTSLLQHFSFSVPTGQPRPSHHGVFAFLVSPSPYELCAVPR
Chain of Voltage-gated inwardly rectifying potassium channel KCNH2 (Q12809 whole entry): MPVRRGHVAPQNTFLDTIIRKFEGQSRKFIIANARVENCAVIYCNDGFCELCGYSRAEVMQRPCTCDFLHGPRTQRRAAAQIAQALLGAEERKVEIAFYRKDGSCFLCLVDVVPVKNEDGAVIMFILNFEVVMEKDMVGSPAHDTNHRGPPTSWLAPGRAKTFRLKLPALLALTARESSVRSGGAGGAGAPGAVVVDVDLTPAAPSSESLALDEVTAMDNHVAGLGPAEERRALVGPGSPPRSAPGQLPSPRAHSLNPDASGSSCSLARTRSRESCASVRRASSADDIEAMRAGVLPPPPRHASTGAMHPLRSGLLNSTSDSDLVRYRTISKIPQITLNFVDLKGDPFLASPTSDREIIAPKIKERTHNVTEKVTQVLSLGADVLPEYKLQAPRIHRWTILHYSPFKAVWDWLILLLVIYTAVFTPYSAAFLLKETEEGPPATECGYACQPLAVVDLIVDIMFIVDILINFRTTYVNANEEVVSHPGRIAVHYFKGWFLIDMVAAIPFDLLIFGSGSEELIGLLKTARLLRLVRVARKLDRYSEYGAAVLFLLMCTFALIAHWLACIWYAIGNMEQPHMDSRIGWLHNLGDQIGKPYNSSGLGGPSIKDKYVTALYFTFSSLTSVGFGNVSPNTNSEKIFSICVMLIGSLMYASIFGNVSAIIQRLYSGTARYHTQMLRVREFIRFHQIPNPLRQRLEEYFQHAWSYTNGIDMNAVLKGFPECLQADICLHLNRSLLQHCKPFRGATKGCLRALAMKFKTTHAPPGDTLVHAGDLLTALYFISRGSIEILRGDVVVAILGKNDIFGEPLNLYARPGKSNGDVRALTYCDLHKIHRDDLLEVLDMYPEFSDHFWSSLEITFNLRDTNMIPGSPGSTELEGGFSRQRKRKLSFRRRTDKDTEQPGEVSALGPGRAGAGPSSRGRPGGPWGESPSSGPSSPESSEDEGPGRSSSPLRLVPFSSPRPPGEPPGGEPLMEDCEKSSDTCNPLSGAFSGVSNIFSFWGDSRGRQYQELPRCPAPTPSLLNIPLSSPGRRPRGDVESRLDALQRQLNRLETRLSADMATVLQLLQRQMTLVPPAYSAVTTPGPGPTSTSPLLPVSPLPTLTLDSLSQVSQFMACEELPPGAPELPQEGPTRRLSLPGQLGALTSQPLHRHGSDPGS
Chain of CYP3A4 (P08684 whole entry): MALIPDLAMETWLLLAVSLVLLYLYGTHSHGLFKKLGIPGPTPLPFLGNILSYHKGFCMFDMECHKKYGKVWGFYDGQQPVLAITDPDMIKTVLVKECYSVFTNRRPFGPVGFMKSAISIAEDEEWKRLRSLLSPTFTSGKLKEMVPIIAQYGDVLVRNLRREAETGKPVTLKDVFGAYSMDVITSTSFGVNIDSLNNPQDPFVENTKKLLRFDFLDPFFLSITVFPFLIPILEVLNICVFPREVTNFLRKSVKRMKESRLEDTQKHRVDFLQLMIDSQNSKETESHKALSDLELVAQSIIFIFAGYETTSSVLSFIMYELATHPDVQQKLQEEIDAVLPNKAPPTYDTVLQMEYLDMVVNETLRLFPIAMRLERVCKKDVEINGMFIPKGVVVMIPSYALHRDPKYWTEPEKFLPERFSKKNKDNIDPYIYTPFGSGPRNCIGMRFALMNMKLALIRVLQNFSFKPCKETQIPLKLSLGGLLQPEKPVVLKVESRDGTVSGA

In general, pIC50 refers to the negative decadic logarithm of the IC50, by convention in mol/L. Consider `CCc1nc(C)n(CC(=O)N2CCN(c3sc(C(F)(F)F)nc3-c3cnc(C(F)(F)F)nc3)C[C@H]2C)n1`, for which the pIC50 in series [1] is 5.06; in series [2], 6.32.

Regarding `C[C@@H]1CN(c2sc(C(F)(F)F)nc2-c2cnc(C(F)(F)F)nc2)CCN1C(=O)Cn1cnc(C(N)=O)n1`, the values for the pIC50 in [1] and in series [2] were below 4.22 and 5.67, respectively.

The logD is lipophilicity at a set pH, counting ionised and neutral species. Read a low logD as a more hydrophilic compound. Take `CCc1nncn1CC(=O)N1CCN(c2sc(C(F)(F)F)nc2-c2cnc(C(F)(F)F)nc2)C[C@H]1C`: in series [3], the logD turned out to be 2.3. For the same compound, the pIC50 is below 4.22 in series [1] and 5.92 in series [2].

For the compound `C[C@@H]1CN(c2sc(C(F)(F)F)nc2-c2cnc(C(F)(F)F)nc2)CCN1C(=O)Cn1cnc(C(C)(C)C)n1`, the negative-log IC50 (pIC50) in series [1] is 5.12; in [2], 6.62.

One may read the bioavailability as the share of a dose that reaches the circulation, judged against a reference dose that is usually intravenous. Low readings indicate little systemic uptake, high ones much systemic uptake. As a reminder, the CL/F is the apparent clearance, not corrected for the fraction that reaches the circulation. For the compound `CC(C)c1ncn(CC(=O)N2CCN(c3sc(C(F)(F)F)nc3-c3cnc(C(F)(F)F)nc3)C[C@H]2C)n1`, the bioavailability in series [4] was at least 100%; in series [6], above 100%. This compound also returned a CL/F in [5] of 6.5 mL/min/kg. In addition, the results for the negative logarithm of the IC50 (pIC50) in series [1] and in series [2] were 5.15 and 6.89, respectively.

Consider `CC(C)c1ncn(CC(=O)N2CCN(c3sc(C(F)(F)F)nc3-c3cnc(C(F)(F)F)nc3)C[C@@H]2CCO)n1`, for which the figures for the microsomal CLint at 1 µM (in series [7]; at CYP3A4; on CYP2D6) were 22 µL/min/mg, 1.9 µL/min/mg and 0.28 µL/min/mg, respectively. Moreover, the negative logarithm of the IC50 (pIC50) in series [1] is 4.72; in [2], 6.78.

Turning to `Cc1ncn(CC(=O)N2CCN(c3sc(C(F)(F)F)nc3-c3cnc(C(F)(F)F)nc3)C[C@H]2C)n1`, in series [3], the logD was found to be 2.7. Besides, the pIC50 in series [1] was 4.77; in series [2], 6.84.

For `C[C@@H]1CN(c2sc(C(F)(F)F)nc2-c2cnc(C(F)(F)F)nc2)CCN1C(=O)Cn1cnc(CO)n1`, the pIC50 in series [1] is below 4.22; in [2] it was 6.29.

Take `Cc1ncn(CC(=O)N2CCN(c3sc(C(F)(F)F)nc3-c3cnc(C(F)(F)F)nc3)C[C@H]2CO)n1`: in [7], the microsomal CLint at 1 µM is below 10 µL/min/mg. For the same compound, the pIC50 in series [1] is below 4.22; in [2] it was 6.78.

Take `CCc1nc(C)nn1CC(=O)N1CCN(c2sc(C(F)(F)F)nc2-c2cnc(C(F)(F)F)nc2)C[C@H]1C`: the pIC50 is 4.92 in series [1] and 6.17 in [2].

Regarding `COCc1ncn(CC(=O)N2CCN(c3sc(C(F)(F)F)nc3-c3cnc(C(F)(F)F)nc3)C[C@H]2C)n1`, the pIC50 in series [1] was 4.74; in [2] it was 6.36.

For the compound `CCc1ncnn1CC(=O)N1CCN(c2sc(C(F)(F)F)nc2-c2cnc(C(F)(F)F)nc2)C[C@H]1C`, the pH-dependent lipophilicity (logD) in series [3] is 2.8. Moreover, the negative logarithm of the IC50 (pIC50) is 4.89 in series [1] and 5.92 in series [2].

In the case of `O=C(Cn1cnc(C2CC2)n1)N1CCN(c2sc(C(F)(F)F)nc2-c2cnc(C(F)(F)F)nc2)C[C@H]1CO`, the microsomal CLint at 1 µM in series [7] is below 10 µL/min/mg. The pIC50 is 4.51 in series [1] and 6.85 in series [2].

On to `C[C@@H]1CN(c2sc(C(F)(F)F)nc2-c2cnc(C(F)(F)F)nc2)CCN1C(=O)Cn1cnc(C(F)(F)F)n1`, for which the negative logarithm of the IC50 (pIC50) in series [1] was 5.41; in series [2] it was 6.72.

Turning to `Cc1ccn(CC(=O)N2CCN(c3sc(C(F)(F)F)nc3-c3cnc(C(F)(F)F)nc3)C[C@H]2C)n1`, the logD in series [3] was found to be 3.4. In addition, the negative logarithm of the IC50 (pIC50) was 5.29 in series [1] and 7.25 in series [2].

Consider `Cc1ncn(CC(=O)N2CCN(c3sc(C(F)(F)F)nc3-c3cnc(C(F)(F)F)nc3)C[C@@H]2CO)n1`, for which the pIC50 in series [1] was below 4.22; in series [2] it was 6.56.

For `Cc1ncn(CC(=O)N2CCN(c3sc(C(F)(F)F)nc3-c3cnc(C(F)(F)F)nc3)C[C@@H]2CCO)n1`, in series [7], the microsomal CLint at 1 µM is below 10 µL/min/mg. Further, the pIC50 in series [1] was below 4.22; in series [2], 6.19.

For `CC(O)c1ncn(CC(=O)N2CCN(c3sc(C(F)(F)F)nc3-c3cnc(C(F)(F)F)nc3)C[C@H]2C)n1` (stereo not given in full), the pIC50 in series [1] is below 4.22; in series [2] it was 6.45.

For the compound `CCc1ncn(CC(=O)N2CCN(c3sc(C(F)(F)F)nc3-c3cnc(C(F)(F)F)nc3)C[C@@H]2CCO)n1`, in series [7], the microsomal CLint at 1 µM is 17 µL/min/mg. Also, the results for the negative-log IC50 (pIC50) in series [1] and in [2] were 4.57 and 6.58, respectively.

In the case of `CCc1ccn(CC(=O)N2CCN(c3sc(C(F)(F)F)nc3-c3cnc(C(F)(F)F)nc3)C[C@H]2CCO)n1`, the microsomal CLint at 1 µM in [7] was found to be 112 µL/min/mg. Further, the negative logarithm of the IC50 (pIC50) in [1] is 5.54; in series [2], 7.60.

For the compound `Cc1ccn(CC(=O)N2CCN(c3sc(C(F)(F)F)nc3-c3cnc(C(F)(F)F)nc3)C[C@H]2CO)n1`, the microsomal CLint at 1 µM was below 10 µL/min/mg in series [7], 0.72 µL/min/mg on CYP3A4 and 0.41 µL/min/mg on CYP2D6. Moreover, the pIC50 in [1] is 4.89; in series [2], 7.27.

In the case of `CCc1ncn(CC(=O)N2CCN(c3sc(C(F)(F)F)nc3-c3cnc(C(F)(F)F)nc3)C[C@H]2C)n1`, the negative logarithm of the IC50 (pIC50) in series [1] was 4.92; in series [2], 6.93.

Consider `C[C@@H]1CN(c2sc(C(F)(F)F)nc2-c2cnc(C(F)(F)F)nc2)CCN1C(=O)Cn1cnc(C#N)n1`, for which the pIC50 is 5.59 in series [1] and 5.88 in [2].

Regarding `CCc1ccn(CC(=O)N2CCN(c3sc(C(F)(F)F)nc3-c3cnc(C(F)(F)F)nc3)C[C@H]2CO)n1`, in series [7], the microsomal CLint at 1 µM turned out to be 81 µL/min/mg. For the same compound, the results for the pIC50 in series [1] and in series [2] were 5.07 and 7.47, respectively.

In the case of `O=C(Cn1cnc(C2CC2)n1)N1CCN(c2sc(C(F)(F)F)nc2-c2cnc(C(F)(F)F)nc2)C[C@H]1CCO`, the microsomal CLint at 1 µM in series [7] was determined as 12 µL/min/mg. The negative logarithm of the IC50 (pIC50) in series [1] is 5.14; in series [2], 7.23.

Regarding `CCc1ncn(CC(=O)N2CCN(c3sc(C(F)(F)F)nc3-c3cnc(C(F)(F)F)nc3)C[C@@H]2CO)n1`, the microsomal CLint at 1 µM in series [7] is below 10 µL/min/mg; on CYP3A4 it was 0.27 µL/min/mg; at CYP2D6 it was 0.13 µL/min/mg. Further, the pIC50 in [1] was below 4.22; in [2], 7.09.

`CC(C)c1ncn(CC(=O)N2CCN(c3sc(C(F)(F)F)nc3-c3cnc(C(F)(F)F)nc3)C[C@H]2CCO)n1`: in series [7], the microsomal CLint at 1 µM was determined as 22 µL/min/mg. Also, the negative logarithm of the IC50 (pIC50) was 5.24 in [1] and 7.20 in series [2].

In the case of `Cc1ncnn1CC(=O)N1CCN(c2sc(C(F)(F)F)nc2-c2cnc(C(F)(F)F)nc2)C[C@H]1C`, the pIC50 in series [1] is 4.80; in [2] it was 6.32.

For the compound `Cc1ccn(CC(=O)N2CCN(c3sc(C(F)(F)F)nc3-c3cnc(C(F)(F)F)nc3)C[C@H]2CCO)n1`, the microsomal CLint at 1 µM in series [7] worked out at 19 µL/min/mg. Besides, the negative-log IC50 (pIC50) is 5.30 in series [1] and 7.52 in series [2].

With `CCc1ncn(CC(=O)N2CCN(c3sc(C(F)(F)F)nc3-c3cnc(C(F)(F)F)nc3)C[C@H]2CO)n1`, the microsomal CLint at 1 µM in series [7] was below 10 µL/min/mg. The compound further returned a logD in series [3] of 2.6. The negative-log IC50 (pIC50) is 4.28 in [1] and 6.68 in [2].

For `CC(C)c1ncn(CC(=O)N2CCN(c3sc(C(F)(F)F)nc3-c3cnc(C(F)(F)F)nc3)C[C@H]2CO)n1`, the microsomal CLint at 1 µM in series [7] is 33 µL/min/mg; at CYP3A4, 1.2 µL/min/mg; at CYP2D6, 0.13 µL/min/mg. For the same compound, the pIC50 was 4.54 in [1] and 6.65 in [2].

Take `CC(C)c1ncn(CC(=O)N2CCN(c3sc(C(F)(F)F)nc3-c3cnc(C(F)(F)F)nc3)C[C@@H]2CO)n1`: the microsomal CLint at 1 µM in series [7] came to 27 µL/min/mg. Besides, the pIC50 in series [1] is 4.77; in [2] it was 6.79.

Turning to `Cc1ccn(CC(=O)N2CCN(c3sc(C(F)(F)F)nc3-c3cnc(C(F)(F)F)nc3)C[C@@H]2CCO)n1`, the microsomal CLint at 1 µM in [7] is 23 µL/min/mg; at CYP3A4, 0.56 µL/min/mg; on CYP2D6, 0.37 µL/min/mg. Moreover, the pIC50 is 4.92 in series [1] and 6.84 in series [2].
